# Data published in US20150342847A1, “NOVEL DERIVATIVES OF SINAPINIC ACID AND THE COSMETIC OR PHARMACEUTICAL USES THEREOF” (BASF Beauty Care Solutions France SAS, priority 2012, published 2015).
# Tests used:
# [1] = system: keratinocytes from the A431 line; assay: Antiinflammatory activity: release of E2 prostaglandins by UVB-irradiated keratinocytes (ELISA); format: cell-based
# Description: Study of the antiinflammatory activity of the hydroxytyrosol dihydrosinapate of the invention of formula (IIa), by measurement of the inhibition of release of E2 prostaglandins by keratinocytes under the effect of UVB.
# The keratinocytes from the A431 line are cultured in an appropriate medium at 37° C. for 72 hours under 5% CO2. The culture medium is then withdrawn and replaced with the medium containing the products under test, and also the positive and negative controls. The cells are subsequently irradiated with UV B at 30 mJ/cm2. The cells are incubated for an extra 24 hours at 37° C. under 5% CO2. The cell supernatants are subsequently recovered, and the E2 prostaglandins (PGE2) released are quantified by an ELISA assay.
# An amount of 100 μL of each sample, control or PGE2 standard is transferred to the wells of a 96-well plate, which are coated with antibodies directed against rat immunoglobulin G (IgG). Then an amount of 25 μL of PGE2-peroxidase conjugate is added to each well, followed by an amount of 25 μL of anti-PGE2 monoclonal antibody. The plate is incubated at 4° C. overnight. The wells are then rinsed and an amount of 100 μL of peroxidase substrate is added. After 15 minutes of incubation at ambient temperature, the optical density is read off at 450 nm. The amount of prostaglandin E2 released after irradiation is deduced from a commercial PGE2 standard range from 0 to 400 pg/mL of PGE2.
# The negative control, represented by the cells which were not treated with samples and which underwent irradiation by UV B, gave rise to 100% release of PGE2. The positive experimental control is aspirin, which at 0.03% gave rise to 5%+/−2% release of PGE2.
# human tyrosinase = molecular target: T1, human tyrosinase (Homo sapiens, UniProt P14679); assay: Anti-human tyrosinase activity in normal human melanocytes (MBTH/L-Dopa, OD490); format: cell-based; conditions: normal human melanocytes, read-out: % inhibition of activity of tyrosinase +/− standard deviation
# T1 construct: endogenous in cells; host or cells: normal human melanocytes obtained from abdominal plasty
# T1 sequence (P14679 19-529): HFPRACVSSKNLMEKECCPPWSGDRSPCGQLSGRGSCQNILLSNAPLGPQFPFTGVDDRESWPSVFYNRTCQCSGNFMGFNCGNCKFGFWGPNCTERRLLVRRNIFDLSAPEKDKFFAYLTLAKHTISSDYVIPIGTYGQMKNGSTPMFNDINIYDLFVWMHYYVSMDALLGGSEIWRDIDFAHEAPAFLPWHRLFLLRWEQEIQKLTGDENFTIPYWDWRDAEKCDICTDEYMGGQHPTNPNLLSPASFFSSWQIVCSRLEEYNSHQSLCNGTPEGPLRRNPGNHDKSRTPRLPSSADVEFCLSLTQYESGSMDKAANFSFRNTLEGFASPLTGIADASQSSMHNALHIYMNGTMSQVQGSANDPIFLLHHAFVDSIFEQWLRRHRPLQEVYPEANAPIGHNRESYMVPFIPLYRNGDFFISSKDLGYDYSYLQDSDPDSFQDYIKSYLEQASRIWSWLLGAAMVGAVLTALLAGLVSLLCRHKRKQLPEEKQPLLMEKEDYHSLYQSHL
# Description: Study of the inhibition of tyrosinase by the hydroxytyrosol dihydrosinapate of the invention of formula (IIa), in comparison with the prior-art ferulic acid derivative, by quantitative analysis of the human tyrosinase activity of melanocytes cultured as a monolayer following application of the compound under test. Normal human melanocytes (obtained from abdominal plasty) are seeded in a 24-well plate at 80000 cells per well. They are cultured until confluence, and the compounds under test are applied in the culture media for 24 hours. After 24 hours, the media are removed and the melanocytes are detached by mechanical action. Extraction is carried out by thermal shock and then the supernatants are recovered and incubated with MBTH (methyl benzothiazolinone-hydrazone) (Sigma) and L-Dopa (Sigma). The optical density (OD) at 490 nm (OD490) is measured after 30 minutes of incubation, and the inhibition of tyrosinase is calculated according to the following formula: % inhibition=100−[100×(OD490 sample/level of proteins in sample)/(OD490 negative control/level of proteins in negative control)] The OD490 is therefore related to the level of protein, which is the measurement in each culture well. […] The results are presented as % inhibition of activity of tyrosinase, in Table 2.
# [2] = TBARS test, lipid peroxidation of UVB-irradiated liposomal suspension; conditions: for % inhibition of lipid peroxidation: UVB 2 hours
# Description: Study of the radical scavenger activity of the hydroxytyrosol dihydrosinapate of the invention of formula (IIa) and of the prior-art ferulic acid derivative by the TBARS test.
# Two identical 96-well plates are produced according to a defined plate plan. 50 μL of a sample mixture prepared by diluting a solution of a test compound or of a negative control (vehicle medium without test compound) or of a positive control (D-L-alpha-tocopherol) to 1/10 in a liposomal suspension are distributed per well, in quadruplicate. One of the two plates is irradiated with UVB for 2 hours. The other plate, serving as a control, is incubated in the absence of light and at ambient temperature for 2 hours.
# At the end of irradiation, an amount of 100 μL of 20% trichloroacetic acid solution was added per well, followed by an amount of 34 μL of 1% thiobarbituric acid solution. The plates are then incubated at 105° C. for 25 minutes.
# The contents of each well are centrifuged at 5700 rpm for 5 minutes, and then an amount of 100 μL of supernatant was deposited in new plates, according to the same plan, and the absorbance was read off at 530 nm.
# The positive experimental control was D-L-alpha-tocopherol, at a concentration of 1%, for which a percentage inhibition of 80% was obtained.
# [3] = system: melanocytes of murine line B16; assay: Inhibition of melanin production in B16 melanocytes stimulated with an α-MSH derivative; format: cell-based; conditions: Mus musculus, B16 cells
# Description: Determination of the percentage inhibition of melanin production by the hydroxytyrosol dihydrosinapate of the invention of formula (IIa) or the ferulic acid derivative of the prior art, by quantitative analysis of the total melanin synthesized by melanocytes of murine line B16 following application of the compound under test.
# Melanocytes (B16 cells) are cultured for 24 hours in a 96-well plate in an appropriate medium. […] After 72 hours of incubation, the culture medium is withdrawn, and total melanin is quantified by measuring the absorbance at 405 nm against a standard range of synthetic melanin from 0.78 to 100 μg/mL.
# The results are expressed as percentage inhibition of melanin production relative to the negative control, and are presented in Table 1.
# The inhibitory activity on melanin production of the product tested is calculated as a percentage according to the following formula:
# % inhibition=[(mean stimulated control−mean basal control)−(sample value−mean basal control)]/(mean stimulated control−mean basal control)×100
# where: • Mean stimulated control: mean of the values obtained with a medium supplemented with an alpha-MSH derivative • Sample value: value obtained with the compound under test • Mean basal control: Mean of the values obtained with a medium not supplemented with an alpha-MSH derivative
# [4] = DPPH radical scavenger test (acellular); conditions: 30 minutes
# Description: Study of the radical scavenger activity of the hydroxytyrosol dihydrosinapate of the invention of formula (IIa) and of the prior-art ferulic acid derivative in an acellular in vitro model, using DPPH.
# 1,1-Diphenyl-2-picrylhydrazyl, owing to its paramagnetic structure, is able to accept an electron or a hydrogen radical in order to become a stable diamagnetic molecule.
# The addition of a compound which provides electrons gives rise to decoloring of the 1,1-diphenyl-2-picrylhydrazyl in a manner proportional to the number of electrons accepted by the radical, and this decoloration can be monitored by measuring the absorbance at 530 nm (OD530).
# […] At the end of the incubation, the radical scavenger activity of the compound under test is evaluated by measuring the absorbance of the solution at 530 nm.
# The results are presented as % inhibition of the DPPH radical, in Table 3a).
# The radical scavenger activity of the test product is calculated as a percentage, according to the following formula:
# 100−((OD530 in the presence of the compound under test/OD530 in the absence of compound)×100)
# keratinocytes = assay: Cytotoxicity, MTT cell viability on keratinocytes; format: cell-based; conditions: 0.25%, positive cytotoxicity control
# Description: (§1) Study of cell viability following application of the hydroxytyrosol dihydrosinapate of the invention of formula (IIa) to keratinocytes or melanocytes.
# (§2) The cells (keratinocytes or melanocytes) were cultured in a 96-well plate at 37° C. under 5% CO2 in an appropriate medium until confluence. The medium was withdrawn and then an amount of 200 μL of a 0.5 mg/mL MTT solution was added. The plates were then incubated at 37° C. for 3 hours, after which the MTT solution was withdrawn from each well and replaced with DMSO. The plates were agitated for 15 minutes, and the optical density was measured at 550 nm.
# (§3) The negative cytotoxicity control is PBS. The positive cytotoxicity control is 0.25% SDS. 0.1% DMSO was used as control.
# melanocytes = assay: Cytotoxicity, MTT cell viability on melanocytes; format: cell-based; conditions: 0.25%, positive cytotoxicity control
# Description: as §1, §2, §3
smiles,measurement,setting,value
COc1cc(CCC(=O)OCCc2ccc(O)c(O)c2)cc(OC)c1O,inhibition of prostaglandin E2 release (in words),"[1]; keratinocytes, 30 μM, after irradiation with UVB",greatly inhibited prostaglandin E2 release
"OC[C@H]1O[C@@H](Oc2ccc(O)cc2)[C@H](O)[C@@H](O)[C@@H]1O [Arbutin, arbutin, reference compound]",inhibition at 1000 µM,human tyrosinase; 1 mM,65%
Cc1c(C)c2c(c(C)c1O)CCC(C)(CCCC(C)CCCC(C)CCCC(C)C)O2 [D-L-alpha-tocopherol],percentage inhibition (lipid peroxidation),[2]; positive control at a concentration of 1%,80%
"O=c1cc(CO)occ1O [Kojic acid, kojic acid]",inhibition at 25 µg/mL,"[3]; positive control at 0.025 mg/mL, read-out: percentage inhibition of melanin production",50%
"COc1cc(/C=C/C(=O)NCCc2ccc(O)c(O)c2)ccc1O [Prior-art ferulic acid derivative, N-trans-feruloyldopamine, reference compound]",% inhibition of the DPPH radical,[4]; 1 μM,6.02 +/− 0.758%
same,% inhibition of the DPPH radical,[4]; 5 μM,35.02 +/− 1.209%
same,% inhibition of the DPPH radical,[4]; 10 μM,61.85 +/− 1.35%
same,% inhibition of the DPPH radical,[4]; 30 μM,89.91 +/− 0.66%
same,% inhibition of the DPPH radical,[4]; 50 μM,89.91 +/− 0.59%
same,% inhibition of the DPPH radical,[4]; 100 μM,89.91 +/− 0.66%
same,% inhibition of the DPPH radical,[4]; 1000 μM,90.99 +/− 0.46%
same,% inhibition of lipid peroxidation,[2]; 1 μM after dilution to 1/10th in the liposomal suspension,−16.95%
same,% inhibition of lipid peroxidation,[2]; 5 μM after dilution to 1/10th in the liposomal suspension,6.69%
same,% inhibition of lipid peroxidation,[2]; 30 μM after dilution to 1/10th in the liposomal suspension,11.77%
same,% inhibition of lipid peroxidation,[2]; 50 μM after dilution to 1/10th in the liposomal suspension,31.74%
same,% inhibition of lipid peroxidation,[2]; 100 μM after dilution to 1/10th in the liposomal suspension,64.04%
same,% inhibition of lipid peroxidation,[2]; 1000 μM after dilution to 1/10th in the liposomal suspension,94.72%
same,inhibition at 10 µM,"[3]; 10 μM, 72 hours, read-out: % inhibition of melanin +/− standard deviation",37%
same,inhibition at 30 µM,"[3]; 30 μM, 72 hours, read-out: % inhibition of melanin +/− standard deviation",76%
same,inhibition at 50 µM,"[3]; 50 μM, 72 hours, read-out: % inhibition of melanin +/− standard deviation",88%
same,inhibition at 1 µM,"human tyrosinase; 1 μM, 24 hours",-9.22%
same,inhibition at 10 µM,"human tyrosinase; 10 μM, 24 hours",18.8%
same,inhibition at 100 µM,"human tyrosinase; 100 μM, 24 hours",67.8%
"CCCCCCCCCCCCOS(=O)(=O)[O-].[Na+] [SDS, reference compound]","Percentage cell viability, Mean",keratinocytes,1.3%
same,"Percentage cell viability, Mean",melanocytes,0.8%
"CC(=O)Oc1ccccc1C(=O)O [aspirin, reference compound]",% release of PGE2 after irradiation,"[1]; A431 keratinocytes, 0.03%, UV B 30 mJ/cm2, positive control",5%+/−2%
